Experimental data: US5071875A (Northwestern University, priority 1989, dated 1991)

How the values were obtained:
melatonin receptor [1] = assay: Inhibition of 2-[125I]iodomelatonin binding to chicken retinal membranes; settings: for IC50: read-out: IC50, inhibition of 2-[125I]iodomelatonin binding to chicken retinal membranes, 0° C., 5 hr, in the dark
Protocol: Dubocovich, et al., Proc. Nat'l.
The compounds to be tested were dissolved in 1 mM HCl with 0.1% bovine serum albumin. Binding was initiated by addition of 220-μl aliquots of retinal membranes resuspended in the Tris-HCl buffer to tubes containing 20 μl of test compound or vehicle, and radioligand. […] Reactions were terminated by addition of 5 ml of ice-cold Tris-HCl buffer, and the contents were immediately filtered through glass-fiber filters (Schleicher & Schuell no. 30) soaked in 0.5% (vol/vol) polyethylenimine solution. Each filter was washed twice with 5 ml of the cold buffer. Radioactivity was determined in a gamma counter.

melatonin receptor [2] = biological target: T1, melatonin receptor (Oryctolagus cuniculus, UniProt G1SUP2); assay: Inhibition of calcium-dependent [3H]dopamine release from rabbit retina (melatonin agonist assay); assay type: cell-based; settings: for inhibition at 1 µM: 1 μM concentration of test compound, read-out: % Maximal Inhibition of [3H]dopamine release; for IC50: compound added before S2, S-sulpiride 0.1 μM present
T1 construct: Typically, the rabbit retina tissues preincubation with [^3 H]-dopamine for 10 minutes; from tissue; host or cells: rabbit retina (superfused retinal tissue)
T1 sequence (G1SUP2 1-362): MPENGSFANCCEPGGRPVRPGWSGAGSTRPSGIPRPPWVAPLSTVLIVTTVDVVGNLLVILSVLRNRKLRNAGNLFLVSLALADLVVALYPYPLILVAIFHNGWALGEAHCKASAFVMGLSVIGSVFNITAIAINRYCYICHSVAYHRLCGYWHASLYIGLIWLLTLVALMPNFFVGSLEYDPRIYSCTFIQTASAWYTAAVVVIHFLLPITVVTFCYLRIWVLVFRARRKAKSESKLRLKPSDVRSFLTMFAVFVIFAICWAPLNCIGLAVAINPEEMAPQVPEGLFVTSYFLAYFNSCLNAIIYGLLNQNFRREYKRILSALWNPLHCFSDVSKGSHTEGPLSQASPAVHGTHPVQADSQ
Protocol: Accordingly, all experiments were run in the presence of S-sulpiride (0.1 μM) to block D-2 dopamine autoreceptors present in the dopamine amacrine cells of retina.
Thus, the lower the IC50, the greater the agonistic activity.
Assays were performed as described in Dubocovich, J. Pharm. […] Retinal tissues are incubated for 10 min at 37° C. in the presence of 0.1 μM [^3 H]dopamine. The tissue was then washed in Krebs' solution at 37° C. and transferred to individual cylindrical plastic tubes having a thin nylon mesh on the bottom. These plastic tubes were then transferred to individual glass superfusion chambers containing platinum electrodes 30 mm apart. The tissue samples are superfused with Krebs' solution, starting at time equal zero until a leveling off of the spontaneous release of radioactivity occurred (about 60 mins). A time equal 60 mins S1 is applied.
Tritium release, i.e., release of [^3 H]dopamine, was elicited by field stimulation at 3 Hz, 20 mA, 2 msec duration. Field stimulations were applied in each experiment at either 60 (S1) or 100 (S2), min after the end of the incubation with [^3 H]dopamine. Samples of the superfusate were collected before, during, and after the period of stimulation. At the end of each experiment, the retinal tissue contained in each chamber was solubilized and the tritium content remaining in the retinal tissue was determined by liquid scintillaton counting. [drawing 8]
The inhibition of [^3 H]dopamine overflow (the percentage of total tissue radioactivity released by field stimulation above the spontaneous release levels, expressed as the ratio S2 /S1) is plotted as a function of the molar concentrations of the test compound (logarithmic scale).

melatonin receptor [3] = biological target: T1, melatonin receptor; assay: Antagonism of melatonin-induced inhibition of [3H]dopamine release from rabbit retina; assay type: cell-based; settings: for shift of the melatonin concentration effect curve: 0.1 μM and 1 μM of test compound, compared with melatonin alone
Protocol: In this example, the test compound is added before the first period of electrical stimulation (S1) and remains present until the end of the experiment.
Typically, the rabbit retina tissues preincubation with [^3 H]-dopamine for 10 minutes is followed by a superfusion with Krebs solution at time equal zero. At time equal 20 minutes the test compound of interest is added. At time equal 60 minutes S1 is applied.
The ratio S2 /S1 can be plotted as a function of the molar concentrations of the test compound used (logarithmic scale).

melatonin receptor [4] = biological target: T1, melatonin receptor; settings: cited from earlier work
melatonin receptor [5] = biological target: T1, melatonin receptor; settings: cited from earlier work; remark: listed apart in the source
melatonin receptor [6] = settings: cited from earlier work
frog skin = settings: cited from earlier work
[7] = test compound 0.1 μM, melatonin 1 nM
[8] = test compound 0.1 μM, melatonin 10 nM
[9] = test compound 1 μM, melatonin 1 nM
[10] = test compound 1 μM, melatonin 10 nM

SMILES	inhibition at 1 µM (melatonin receptor [2]) [%]	IC50 (melatonin receptor [2]) [nM]	IC50 (melatonin receptor [1]) [nM]	further results
COc1cccc2c1CC(NC(C)=O)CC2 (stereo not shown) [AH 001, 8-methoxy 2-acetamido-tetralin]	–	–	–	activity in competitively inhibiting the binding of 2-[125I]iodomelatonin to the melatonin binding site (in words) (melatonin receptor [1]): high activity
CCC(=O)NC1CCc2cccc(OC)c2C1 (stereo not shown) [AH 002, 8-methoxy-2-propionamidotetralin]	–	–	–	activity in competitively inhibiting the binding of 2-[125I]iodomelatonin to the melatonin binding site (in words) (melatonin receptor [1]): high activity
CC(=O)NC1CCc2ccccc2C1 (stereo not shown) [AH 005, 2-acetamidotetralin]	50	52.2	20000	–
CCC(=O)NC1CCc2ccccc2C1 (stereo not shown) [AH 006, 2-propionamido-tetralin]	70	8.13	13000	–
COc1cccc2c1CC(NC(=O)c1ccccc1)CC2 (stereo not shown) [AH 007, 8-methoxy-2-benzoylamido-tetralin]	40	10	> 10000	–
COc1ccc2c(c1)CC(NC(C)=O)CC2 (stereo not shown) [AH 008, 7-methoxy-2-acetamido-tetralin]	–	–	> 10000	–
O=C(CCl)NC1CCc2ccccc2C1 (stereo not shown) [AH 011, 2-chloroacetamido-tetralin]	80	1.3	–	–
CCCC(=O)NC1CCc2cccc(OC)c2C1 (stereo not shown) [AH 013, 8-methoxy-2-n-butyramidotetralin]	80	1.18	257	melatonin agonist activity (in words) (melatonin receptor [2]): melatonin agonists; activity in competitively inhibiting the binding of 2-[125I]iodomelatonin to the melatonin binding site (in words) (melatonin receptor [1]): high activity
COc1cccc2c1CC(NC(=O)C(C)C)CC2 (stereo not shown) [AH 014, 8-methoxy-2-iso-butyramido-tetralin]	80	7.94	4620	–
COc1cccc2c1CC(NC(=O)C1CC1)CC2 (stereo not shown) [AH 015, 8-methoxy-2-cyclopropanecarbonylamido-tetralin]	80	2.51	2940	melatonin agonist activity (in words) (melatonin receptor [2]): melatonin agonists
COc1cccc2c1CC(NC(=O)Cc1ccccc1)CC2 (stereo not shown) [AH 016, 8-methoxy-2-phenylacetamido-tetralin]	0	> 1000	–	–
COc1cccc2c1CC(NC(=O)CCl)CC2 (stereo not shown) [AH 017, 8-methoxy-2-chloroacetamidotetralin]	75	0.063	–	–
COc1cccc2c1CCC(NC(C)=O)C2 (stereo not shown) [AH 018, 5-methoxy-2-acetamido-tetralin]	–	–	16000	–
O=C(NC1CCc2ccccc2C1)c1ccccc1 (stereo not shown) [AH 019, 2-benzoylamido-tetralin]	–	–	> 10000	–
CCCC(=O)NC1CCc2ccccc2C1 (stereo not shown) [AH 020, 2-butyramido-tetralin]	–	–	2910	–
CC(=O)NC1Cc2ccccc2C(c2ccccc2)C1 (stereo not shown) [AH 023, 4-phenyl-2-acetamidotetralin]	–	> 1000	630	antagonism of melatonin-induced inhibition of [3H]dopamine release (in words) (melatonin receptor [3]): antagonize the melatonin-induced inhibition of [^3 H]dopamine release; shift of the melatonin concentration effect curve (melatonin receptor [3]): shift to the right; S2/S1 (melatonin receptor [3]; test compound 0.01 μM, melatonin 0.1 nM): 0.69 ± 0.11; S2/S1 (melatonin receptor [3]; test compound 0.01 μM, melatonin 1 nM): 0.30 ± 0.04; S2/S1 (melatonin receptor [3]; [7]): 0.73 ± 0.04; S2/S1 (melatonin receptor [3]; [8]): 0.37 ± 0.06; S2/S1 (melatonin receptor [3]; test compound 1 μM, melatonin 0.1 nM): 1.02 ± 0.03; S2/S1 (melatonin receptor [3]; [9]): 0.92 ± 0.07; S2/S1 (melatonin receptor [3]; [10]): 0.69 ± 0.03; activity in competitively inhibiting the binding of 2-[125I]iodomelatonin to the melatonin binding site (in words) (melatonin receptor [1]): high activity
CCC(=O)NC1Cc2ccccc2C(c2ccccc2)C1 (stereo not shown) [AH 024, 4-phenyl-2-propionamido-tetralin]	–	> 1000	250	antagonism of melatonin-induced inhibition of [3H]dopamine release (in words) (melatonin receptor [3]): antagonize the melatonin-induced inhibition of [^3 H]dopamine release; shift of the melatonin concentration effect curve (melatonin receptor [3]): shift to the right; S2/S1 (melatonin receptor [3]; test compound 0.1 μM, melatonin 0.1 nM): 1.01 ± 0.07; S2/S1 (melatonin receptor [3]; [7]): 0.76 ± 0.01; S2/S1 (melatonin receptor [3]; [8]): 0.25 ± 0.01; S2/S1 (melatonin receptor [3]; [9]): 0.91 ± 0.06; S2/S1 (melatonin receptor [3]; [10]): 0.61 ± 0.01; activity in competitively inhibiting the binding of 2-[125I]iodomelatonin to the melatonin binding site (in words) (melatonin receptor [1]): high activity
CC(=O)NC1Cc2ccccc2C(Cc2ccccc2)C1 (stereo not shown) [AH 025, 4-benzyl-2-acetamidotetralin]	70	4	400	melatonin agonist activity (in words) (melatonin receptor [2]): melatonin agonists; activity in competitively inhibiting the binding of 2-[125I]iodomelatonin to the melatonin binding site (in words) (melatonin receptor [1]): high activity
O=C(CCl)NC1Cc2ccccc2C(c2ccccc2)C1 (stereo not shown) [AH 026, 4-phenyl-2-chloroacetamido-tetralin]	–	> 1000	–	–
CCC(=O)NC1Cc2ccccc2C(Cc2ccccc2)C1 (stereo not shown) [AH 027, 4-benzyl-2-propionamido-tetralin]	65	13	790	melatonin agonist activity (in words) (melatonin receptor [2]): melatonin agonists; activity in competitively inhibiting the binding of 2-[125I]iodomelatonin to the melatonin binding site (in words) (melatonin receptor [1]): high activity
CC(=O)NC1CC(Cc2ccccc2)c2ccccc2C1=O (stereo not shown) [AH 028, 2-Acetamido-4-benzyl-1-tetralone]	60	16	25000	–
O=C(CCl)NC1Cc2ccccc2C(Cc2ccccc2)C1 (stereo not shown) [AH 029, 4-benzyl-2-chloroacetamido-tetralin]	70	10	–	–
CC(=O)NCCc1c(Cc2ccccc2)[nH]c2ccccc12 [Luzindole, 2-benzyl-N-acetyltryptamine]	–	–	–	antagonism of the ability of melatonin to inhibit [3H]dopamine release (melatonin receptor [4]): antagonize the ability of melatonin to inhibit [^3 H]dopamine release in a competitive fashion; effect on spontaneous outflow and calcium-dependent release of [3H]dopamine (melatonin receptor [5]; concentrations up to 10 μM, compound alone): does not modify
CC(=O)NCCc1c[nH]c2ccccc12 [N-acetyltryptamine]	–	–	–	melatonin receptor activity in chicken retina (in words) (melatonin receptor [6]): competitive melatonin receptor antagonist; effect on melatonin-induced lightening of α-MSH-induced darkening of frog skin (frog skin): antagonize the melatonin-induced lightening; melatonin receptor activity in rabbit retina (in words) (melatonin receptor [5]): partial melatonin agonist
